Measured values as given in the supplement of paper PMC10307832.

Columns and labels:
Experiment in all cases: relative viability (nuclei count vs DMSO), 5 days (fraction); higher = more cells survive
[1] = compound: Cc1cc(Nc2cc(N3CCN(C)CC3)nc(Sc3ccc(NC(=O)C4CC4)cc3)n2)n[nH]1 [Tozasertib] + CCNC(=O)c1noc(-c2cc(C(C)C)c(O)cc2O)c1-c1ccc(CN2CCOCC2)cc1 [Luminespib] (partner 0.01 µM)
Outline: (§1)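 Lung cancer cell lines in 1536-well plates got either a single drug or a fixed anchor-drug dose together with five library-drug doses (not always all listed) in √10 steps, by pin tool, on the day after seeding. Nuclei were counted after 5 days, and relative viability is the treated-to-vehicle ratio of nuclei counts. Values are medians of duplicate plates.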

[2] = compound: Cc1cc(Nc2cc(N3CCN(C)CC3)nc(Sc3ccc(NC(=O)C4CC4)cc3)n2)n[nH]1 [Tozasertib] + COc1cccc2cc(-c3nc([C@H]4CC[C@H](C(=O)O)CC4)n4ncnc(N)c34)[nH]c12 [OSI-027] (partner 0.5 µM)
Outline: as §1

[3] = compound: Cc1cc(Nc2cc(N3CCN(C)CC3)nc(Sc3ccc(NC(=O)C4CC4)cc3)n2)n[nH]1 [Tozasertib] + CS(=O)(=O)N1CCN(Cc2cc3nc(-c4cccc5[nH]ncc45)nc(N4CCOCC4)c3s2)CC1 [Pictilisib] (partner 1 µM)
Outline: as §1

[4] = compound: Cc1cc(Nc2cc(N3CCN(C)CC3)nc(Sc3ccc(NC(=O)C4CC4)cc3)n2)n[nH]1 [Tozasertib] + Cc1nc(Nc2ncc(C(=O)Nc3c(C)cccc3Cl)s2)cc(N2CCN(CCO)CC2)n1 [Dasatinib] (partner 0.075 µM)
Outline: as §1

[5] = compound: Cc1cc(Nc2cc(N3CCN(C)CC3)nc(Sc3ccc(NC(=O)C4CC4)cc3)n2)n[nH]1 [Tozasertib] + N=C(N)NC(=N)NCCc1ccccc1 [Phenformin] (partner 250 µM)
Outline: as §1

Cell Line | relative viability ([1]; first compound 0.004 µM) | relative viability ([1]; first compound 0.01265 µM) | relative viability ([1]; first compound 0.04 µM) | relative viability ([1]; first compound 0.1265 µM) | relative viability ([2]; first compound 0.004 µM) | relative viability ([2]; first compound 0.01265 µM) | relative viability ([2]; first compound 0.04 µM) | relative viability ([2]; first compound 0.1265 µM) | relative viability ([3]; first compound 0.004 µM) | relative viability ([3]; first compound 0.01265 µM) | relative viability ([3]; first compound 0.04 µM) | relative viability ([3]; first compound 0.1265 µM) | relative viability ([4]; first compound 0.004 µM) | relative viability ([4]; first compound 0.01265 µM) | relative viability ([4]; first compound 0.04 µM) | relative viability ([4]; first compound 0.1265 µM) | relative viability ([5]; first compound 0.004 µM) | relative viability ([5]; first compound 0.01265 µM) | relative viability ([5]; first compound 0.04 µM) | relative viability ([5]; first compound 0.1265 µM)
NCI-H460 | 0.031 | 0.0376 | 0.0324 | 0.0295 | 0.855 | 0.645 | 0.668 | 0.519 | 0.337 | 0.346 | 0.389 | 0.319 | 0.546 | 0.546 | 0.62 | 0.318 | 0.529 | 0.463 | 0.578 | 0.159
NCI-H520 | 0.193 | 0.219 | 0.219 | 0.233 | 0.356 | 0.26 | 0.254 | 0.234 | 0.315 | 0.268 | 0.288 | 0.186 | 0.265 | 0.203 | 0.209 | 0.138 | 0.546 | 0.57 | 0.662 | 0.234
NCI-H596 | 0.957 | 0.96 | 1.09 | 0.901 | 0.785 | 0.628 | 0.797 | 0.771 | 0.399 | 0.395 | 0.395 | 0.332 | 0.555 | 0.589 | 0.645 | 0.53 |  | 0.808 | 0.968 | 0.834
NCI-H647 | 0.24 | 0.152 | 0.186 | 0.194 | 0.836 | 0.763 | 0.763 | 0.33 | 0.442 |  | 0.476 | 0.171 | 0.204 | 0.185 | 0.181 | 0.0838 | 0.687 | 0.526 | 0.602 | 0.177
NCI-H650 | 0.901 | 0.845 | 0.678 | 0.646 | 0.549 | 0.512 | 0.535 | 0.452 | 0.917 | 0.813 | 0.823 | 0.756 | 0.577 | 0.384 | 0.452 | 0.389 | 0.497 | 0.445 | 0.444 | 0.379
NCI-H661 | 1.01 | 0.916 | 0.973 | 0.575 | 0.731 | 0.747 | 0.722 | 0.302 | 0.461 | 0.394 | 0.404 | 0.349 | 1.12 | 0.85 | 0.699 | 0.249 | 0.287 | 0.313 | 0.319 | 0.253
NCI-H727 | 0.254 | 0.351 | 0.515 | 0.343 | 0.75 | 0.536 | 0.683 | 0.539 | 0.357 | 0.354 | 0.391 | 0.299 | 0.386 | 0.38 | 0.378 | 0.286 | 0.588 | 0.466 | 0.537 | 0.375
NCI-H838 | 0.292 | 0.304 | 0.344 | 0.295 | 0.485 | 0.354 | 0.426 | 0.257 | 0.453 | 0.425 | 0.427 | 0.202 | 0.304 | 0.307 | 0.225 | 0.256 | 0.702 | 0.514 | 0.606 | 0.177
NCI-H1355 | 0.643 | 0.738 | 0.689 | 0.58 | 0.368 | 0.383 | 0.458 | 0.343 | 0.426 | 0.461 | 0.52 | 0.272 | 0.691 | 0.706 | 0.843 | 0.49 | 0.469 | 0.424 | 0.459 | 0.367
NCI-H1395 | 0.595 | 0.815 | 0.604 | 0.649 | 0.7 | 0.6 | 0.646 | 0.437 | 0.657 | 0.528 | 0.604 | 0.469 | 0.423 | 0.343 | 0.438 | 0.357 | 0.46 | 0.429 | 0.47 | 0.359
NCI-H1437 | 1.19 | 1.1 | 1.09 | 1.03 | 1 | 0.794 | 0.874 | 0.606 | 0.479 | 0.385 | 0.448 | 0.318 | 0.453 | 0.254 | 0.372 | 0.434 | 0.312 | 0.301 | 0.297 | 0.2
NCI-H1650 | 0.199 | 0.2 | 0.223 | 0.197 | 0.689 | 0.602 | 0.621 | 0.302 | 0.589 | 0.557 | 0.639 | 0.204 | 0.311 | 0.377 |  | 0.167 | 0.47 | 0.38 | 0.595 | 0.199
NCI-H1651 | 0.818 | 0.918 | 1 | 0.909 | 0.888 | 0.645 |  | 0.666 | 0.655 | 0.62 | 0.634 | 0.377 | 0.433 | 0.371 |  | 0.234 | 0.319 | 0.339 | 0.316 | 0.267
NCI-H1666 | 0.957 | 1.03 | 0.968 | 0.859 | 0.859 |  | 0.814 | 0.765 | 0.455 | 0.412 | 0.586 | 0.305 | 0.793 | 0.71 | 0.803 | 0.554 | 0.605 | 0.558 | 0.562 | 0.464
NCI-H1734 | 0.223 | 0.184 | 0.2 | 0.167 | 0.597 | 0.596 | 0.557 | 0.435 | 0.528 | 0.494 | 0.518 | 0.401 | 0.422 | 0.444 | 0.452 | 0.314 | 0.41 | 0.432 | 0.374 | 0.241
NCI-H1755 | 0.259 | 0.386 | 0.322 | 0.413 | 0.661 | 0.636 | 0.725 | 0.601 | 0.422 | 0.395 | 0.444 | 0.232 | 0.44 | 0.486 | 0.474 | 0.312 | 0.593 | 0.597 | 0.592 | 0.483
NCI-H1792 | 0.394 |  | 0.456 | 0.325 | 0.716 | 0.579 | 0.81 | 0.621 | 0.297 | 0.203 | 0.241 | 0.167 | 0.7 | 0.594 | 0.888 | 0.694 | 0.325 |  | 0.423 | 0.209
NCI-H1793 | 0.181 | 0.198 | 0.191 | 0.18 | 0.229 | 0.214 | 0.358 | 0.228 | 0.396 | 0.357 | 0.351 | 0.261 | 0.387 | 0.36 | 0.377 | 0.285 | 0.33 | 0.427 | 0.414 | 0.458
NCI-H1915 | 0.968 | 0.835 | 0.678 | 0.482 | 0.669 | 0.592 | 0.658 | 0.569 | 1.06 | 0.862 | 0.872 | 0.635 | 0.376 | 0.298 | 0.313 | 0.264 | 0.381 | 0.324 | 0.336 | 0.321
NCI-H1944 | 0.717 | 0.706 | 0.866 | 0.414 | 0.471 | 0.397 | 0.422 | 0.247 | 0.36 | 0.339 | 0.331 | 0.275 | 0.217 | 0.217 | 0.206 | 0.147 | 0.203 | 0.211 | 0.211 | 0.167
NCI-H1975 | 0.213 | 0.32 | 0.171 | 0.198 | 0.968 | 0.758 |  | 0.683 | 0.323 | 0.278 | 0.295 | 0.238 | 0.492 | 0.407 | 0.342 | 0.308 | 0.444 | 0.432 | 0.428 | 0.366
NCI-H1993 | 0.755 | 0.631 | 0.796 | 0.618 | 0.485 | 0.505 | 0.569 | 0.524 |  | 0.759 |  | 0.632 | 0.729 | 0.456 | 0.636 | 0.537 | 0.527 | 0.482 | 0.481 | 0.486
NCI-H2009 | 1.03 | 0.972 | 1.06 | 1.07 | 0.635 | 0.614 | 0.668 | 0.51 | 0.851 | 0.79 |  | 0.552 | 0.307 | 0.292 | 0.266 | 0.213 | 0.5 | 0.455 | 0.476 | 0.477
NCI-H2023 | 0.811 | 0.749 | 0.9 | 0.598 | 0.391 | 0.325 | 0.488 | 0.285 | 0.306 | 0.287 | 0.296 | 0.0957 | 0.562 | 0.506 | 0.572 | 0.318 | 0.393 | 0.393 | 0.407 | 0.258
NCI-H2085 | 0.473 | 0.428 | 0.442 | 0.457 | 0.769 | 0.726 | 0.828 | 0.695 | 0.454 | 0.421 | 0.486 | 0.266 | 0.235 | 0.231 | 0.244 | 0.228 | 0.759 | 0.744 | 0.731 | 
NCI-H2087 | 0.175 | 0.185 | 0.177 | 0.172 | 0.638 | 0.576 | 0.64 | 0.444 | 0.928 | 0.885 | 0.933 | 0.714 | 0.82 | 0.858 | 1.12 | 0.63 | 0.487 | 0.443 | 0.539 | 0.344
NCI-H2126 | 1 | 0.935 | 0.891 | 0.865 | 0.777 | 0.728 | 0.773 | 0.657 | 0.505 | 0.529 | 0.532 | 0.426 | 0.587 | 0.674 | 0.674 | 0.485 | 0.604 | 0.562 | 0.467 | 0.51
